Six compounds from DBAASP can be followed below.

≈ marks a conversion by molar mass, not a printed value. A value given as a limit tells only on which side of the number the result lay.

What all share (experiment): ≥ marks a high value that may be exact or a test limit, other limits are often not marked, values filed in µg/mL are converted to µM
Assay [1] deals with Staphylococcus aureus ATCC 25923.
The test system of assay [2] is Enterococcus faecalis ATCC 29212.
The next assay concerns Escherichia coli UB1005.
The next assay deals with Candida albicans.
Assay [3] relates to Salmonella enterica serovar Typhimurium.
Assay [4] concerns Staphylococcus epidermidis.
In assay [5] the test system is Pseudomonas aeruginosa H103.
Assay [6] relates to Bacillus subtilis ATCC 23857.
For assay [7], the system named is Escherichia coli ATCC 25922.
The test system of assay [8] is Klebsiella pneumoniae ATCC 700603.
The test system of assay [9] is Pseudomonas aeruginosa ATCC 9027.

A word on the MIC: it is the smallest concentration in the dilution series that meets the test's criterion for growth inhibition. High values mean weaker potency, low ones greater potency. Regarding `CC[C@H](C)[C@H](NC(=O)[C@H](CCCN=C(N)N)NC(=O)[C@H](C)NC(=O)[C@H](CC(C)C)NC(=O)CN)C(=O)N[C@H](C(=O)N[C@H](C(=O)N[C@H](C(=O)N[C@@H](CCCN=C(N)N)C(=O)N[C@H](C(=O)N[C@@H](C)C(=O)N[C@@H](CCCN=C(N)N)C(N)=O)C(C)C)[C@@H](C)CC)C(C)C)C(C)C` [GLARIVVIRVAR], the minimal inhibitory concentration (MIC) in [1] is 47.6 µM (≈ 63 µg/mL); in [2], 23.4 µM (≈ 31 µg/mL); with Escherichia coli UB1005 it was 12.1 µM (≈ 16 µg/mL); in the assay with Candida albicans, 94.5 µM (≈ 125 µg/mL); in assay [3] it was at least 47.6 µM; in [4], 12.1 µM (≈ 16 µg/mL). The MIC in assay [5] is at least 94.5 µM.
Regarding `NCCCC[C@H](NC(=O)[C@H](Cc1ccccc1)NC(=O)[C@H](CCCN=C(N)N)NC(=O)[C@H](CCCCN)NC(=O)[C@H](CCCCN)NC(=O)[C@H](CCCN=C(N)N)NC(=O)[C@@H](N)CCCCN)C(=O)N[C@@H](Cc1c[nH]c2ccccc12)C(=O)N[C@@H](Cc1c[nH]c2ccccc12)C(=O)O` [KRKKRFKWW], the MIC in assay [1] worked out at 2.6 µM (≈ 3.54 µg/mL); in assay [2] it was 10.3 µM (≈ 14 µg/mL); in the assay on Escherichia coli UB1005, 20.6 µM (≈ 28.1 µg/mL); in the assay on Candida albicans, 41.2 µM (≈ 56.1 µg/mL); in assay [3], 20.6 µM (≈ 28.1 µg/mL); in [4], 2.6 µM (≈ 3.54 µg/mL). In assay [5], this compound displayed an MIC of at least 115 µM.
In the case of `CC[C@H](C)[C@H](NC(=O)[C@H](CCCN=C(N)N)NC(=O)[C@H](CCCN=C(N)N)NC(=O)[C@H](CCCN=C(N)N)NC(=O)[C@H](CCCN=C(N)N)NC(=O)[C@@H](NC(=O)[C@@H](N)C(C)C)[C@@H](C)CC)C(=O)N[C@@H](CC(C)C)C(=O)N[C@@H](C)C(=O)N[C@@H](C)C(=O)N[C@H](C(=O)N[C@H](C(N)=O)C(C)C)C(C)C` [VIRRRRILAAVV], the MIC in assay [1] is 176 µM (≈ 250 µg/mL); against Escherichia coli UB1005, at least 95.7 µM; with Candida albicans, 95.7 µM (≈ 136 µg/mL); in assay [3], at least 95.7 µM; in assay [4], at least 95.7 µM; in [5], at least 176 µM.
On to `CC[C@H](C)[C@H](NC(=O)[C@H](CCCCN)NC(=O)[C@H](CCCCN)NC(=O)[C@H](C)NC(=O)[C@@H](NC(=O)[C@H](C)NC(=O)[C@H](CC(C)C)NC(=O)[C@H](CC(C)C)NC(=O)[C@H](CCCCN)NC(=O)[C@H](CCCCN)NC(=O)[C@H](CC(C)C)NC(=O)[C@H](CC(N)=O)NC(=O)[C@@H](N)CC(C)C)C(C)C)C(=O)N[C@@H](CC(C)C)C(N)=O` [LNLKKLLAVAKKIL], for which the MIC in [1] turned out to be 8 µM (≈ 12.5 µg/mL); in assay [6], 2 µM (≈ 3.13 µg/mL); in assay [7], 4 µM (≈ 6.26 µg/mL); in assay [8], 4 µM (≈ 6.26 µg/mL); in assay [9], 4 µM (≈ 6.26 µg/mL).
`CC[C@H](C)[C@H](NC(=O)[C@@H](NC(=O)[C@H](C)NC(=O)[C@@H](NC(=O)[C@H](C)NC(=O)[C@@H](N)CCCN=C(N)N)C(C)C)C(C)C)C(=O)N[C@H](C(=O)N[C@@H](CCCN=C(N)N)C(=O)N[C@@H](CC(C)C)C(=O)N[C@@H](CCCN=C(N)N)C(=O)N[C@@H](CCCN=C(N)N)C(=O)N[C@H](C(N)=O)C(C)C)[C@@H](C)CC` [RAVAVIIRLRRV]: the MIC in [1] stood at 16.2 µM (≈ 23 µg/mL); with Escherichia coli UB1005, 7.74 µM (≈ 11 µg/mL); in the assay with Candida albicans, 4.22 µM (≈ 6 µg/mL); in assay [3], 7.74 µM (≈ 11 µg/mL); in assay [4], 4.22 µM (≈ 6 µg/mL); in assay [5] it was 16.2 µM (≈ 23 µg/mL).
For `CC[C@H](C)[C@H](NC(=O)[C@H](CCCCN)NC(=O)[C@H](C)NC(=O)[C@H](C)NC(=O)[C@@H](NC(=O)[C@H](C)NC(=O)[C@H](CC(C)C)NC(=O)[C@H](CC(C)C)NC(=O)[C@H](C)NC(=O)[C@H](CCCCN)NC(=O)[C@H](CC(C)C)NC(=O)[C@H](CC(N)=O)NC(=O)[C@@H](N)CC(C)C)C(C)C)C(=O)N[C@@H](CC(C)C)C(N)=O` [LNLKALLAVAAKIL], the MIC in assay [1] is 4 µM (≈ 5.8 µg/mL); in [6], 16 µM (≈ 23.2 µg/mL); in [7] it was 8 µM (≈ 11.6 µg/mL); in assay [8], 32 µM (≈ 46.4 µg/mL); in [9] it was 32 µM (≈ 46.4 µg/mL).
